# From ChEMBL document CHEMBL4392879, “Secondary Metabolites of Onygenales Fungi Exemplified by Aioliomyces pyridodomos” (J Nat Prod, 2019)
# System: Histoplasma capsulatum
# Test: Antifungal activity against Histoplasma capsulatum G217B after 10 to 14 days by microscopic method
# Type: functional, organism-based
row,SMILES,IC50 [mg/L]
1,C/C=C/C=C/c1c(CC=C(C)C)cc2c(c1CO)OC(C)(C)C(O)C2=O (stereo unspecified),16
2,C/C=C/C=C/c1c(CC=C(C)C)cc(CC=C(C)C)c(O)c1CO,8
3,CC(C)=CCc1cc2c(c3c1[C@@H]1C[C@H](C3=O)[C@@H]1C)OC(C)(C)[C@H](O)C2=O,64
4,CC(C)=CCc1cc2c(c3c1[C@@H]1C[C@H](C3=O)[C@@H]1C)OC(C)(C)[C@@H](O)C2=O,32
5,CCC(C)n1ncn(-c2ccc(N3CCN(c4ccc(OCC5COC(Cn6cncn6)(c6ccc(Cl)cc6Cl)O5)cc4)CC3)cc2)c1=O (stereo unspecified) [ITRACONAZOLE],0.001
6,C[C@@H]1[C@H](O)[C@@H](C)/C=C/C=C/C=C/C=C/C=C/C=C/C=C/[C@H](O[C@@H]2O[C@H](C)[C@@H](O)[C@H](N)[C@@H]2O)C[C@@H]2O[C@](O)(C[C@@H](O)C[C@@H](O)[C@H](O)CC[C@@H](O)C[C@@H](O)CC(=O)O[C@H]1C)C[C@H](O)[C@H]2C(=O)O [AMPHOTERICIN B],0.5
